Data: US10844044B2 (Vanderbilt University, priority 2018, dated 2020)
Read-outs that look alike come from different tables or passages of the source.

Key:
[1] = test system: MV4:11 human cancer cell lines; test: Anti-proliferative activity, CellTiter-Glo viability assay, 7 day protocol; type: cell-based; conditions: MV4:11 cells, 7 day incubation, read-out: GI50 on cellular proliferation of MV4:11 human cancer cell lines
Procedure, shortened: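 MV4:11 cells seeded at 3600 cells/ml and exposed to compounds for 7 days, 0.1% DMSO final. Viability measured by CellTiter-Glo luminescence. GI50 from three biological replicates, each in technical triplicate, given as mean ± S.E.M.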

WDR5 = WDR5 (Homo sapiens (Human), UniProt P61964); test: TR-FRET binding assay (displacement of 10mer-Thr-FAM probe from WDR5)
[2] = read-out: Ki for Inhibition of WDR5 by TR-FRET assay
[3] = read-out: Ki for Inhibition of WDR5 by TR-FRET assay, TR-FRET, 10mer-Thr-FAM probe, WDR5-His tag 2 nM, pH 7.0

Work on `Cc1cc([C@@H](NC(=O)c2cc(CN3CCN(C)C3=N)cc(-c3cccnc3C(F)(F)F)c2)C2CC2)ccc1F` [Example 143, (S)—N-(Cyclopropyl(4-fluoro-3-methylphenyl)methyl)-3-((2-imino-3-methylimidazolidin-1-yl)methyl)-5-(2-(trifluoromethyl)pyridin-3-yl)benzamide] yielded a GI50 ([1]; Homo sapiens, MV4-11, 168 h) of 170 nM and a Ki (WDR5; [2]) of under 0.1 nM.

Work on `Cc1cc(CNC(=O)c2cc(Cn3ccn(C)c3=N)cc(OC(F)(F)F)c2)ccc1Cl` [Example 147, N-(4-Chloro-3-methylbenzyl)-3-((2-imino-3-methyl-2,3-dihydro-1H-imidazol-1-yl)methyl)-5-(trifluoromethoxy)benzamide] yielded a GI50 ([1]; Homo sapiens, MV4-11, 168 h) of 840 nM and a Ki (WDR5; [3]) of 0.37 nM.

In the case of `Cc1cc([C@@H](NC(=O)c2cc(Cn3ccn(C)c3=N)cc(-c3ccc(F)cc3C(F)F)c2)C2CC2)ccc1F` [Example 154, (S)—N-(Cyclopropyl(4-fluoro-3-methylphenyl)methyl)-2′-(difluoromethyl)-4′-fluoro-5-((2-imino-3-methyl-2,3-dihydro-1H-imidazol-1-yl)methyl)-[1,1′-biphenyl]-3-carboxamide], the GI50 ([1]; Homo sapiens, MV4-11, 168 h) is reported as 120 nM and the Ki (WDR5; [3]) is reported as under 0.1 nM.

`Cc1cc([C@@H](NC(=O)c2cc(Cn3ccn(C4CC4)c3=N)cc(-c3ccc(F)cc3OC(F)F)c2)C2CC2)ccc1F` [Example 156, (S)—N-(cyclopropyl(4-fluoro-3-methylphenyl)methyl)-5-((3-cyclopropyl-2-imino-2,3-dihydro-1H-imidazol-1-yl)methyl)-2′-(difluoromethoxy)-4′-fluoro-[1,1′-biphenyl]-3-carboxamide] showed a GI50 ([1]; Homo sapiens, MV4-11, 168 h) of 470 nM and a Ki (WDR5; [3]) of under 0.1 nM.

`Cn1cc(-c2cc(Cn3ccn(C)c3=N)cc(C(=O)N[C@H](c3ccc(Cl)c(Cl)c3)C3CC3)c2)c(C(F)(F)F)n1` [Example 157, (S)—N-(Cyclopropyl(3,4-dichlorophenyl)methyl)-3-((2-imino-3-methyl-2,3-dihydro-1H-imidazol-1-yl)methyl)-5-(1-methyl-3-(trifluoromethyl)-1H-pyrazol-4-yl)benzamide] gave a GI50 [1] of 100 nM and a Ki (WDR5; [3]) of under 0.1 nM.

With `Cc1cc([C@@H](NC(=O)c2cc(Cn3ccn(C4CC4)c3=N)cc(-c3ccc(F)cc3C(F)F)c2)C2CC2)ccc1F` [Example 158, (S)—N-(Cyclopropyl(4-fluoro-3-methylphenyl)methyl)-5-((3-cyclopropyl-2-imino-2,3-dihydro-1H-imidazol-1-yl)methyl)-2′-(difluoromethyl)-4′-fluoro-[1,1′-biphenyl]-3-carboxamide] the GI50 ([1]; Homo sapiens, MV4-11, 168 h) was 170 nM and the Ki (WDR5; [3]) was under 0.1 nM.

`Cn1cc(-c2cc(Cn3ccn(C4CC4)c3=N)cc(C(=O)N[C@H](c3ccc(Cl)c(Cl)c3)C3CC3)c2)c(C(F)(F)F)n1` [Example 159, (S)—N-(cyclopropyl(3,4-dichlorophenyl)methyl)-3-((3-cyclopropyl-2-imino-2,3-dihydro-1H-imidazol-1-yl)methyl)-5-(1-methyl-3-(trifluoromethyl)-1H-pyrazol-4-yl)benzamide] showed a GI50 ([1]; Homo sapiens, MV4-11, 168 h) of 190 nM and a Ki (WDR5; [3]) of under 0.1 nM.

`CCn1cc(-c2cc(Cn3ccn(C4CC4)c3=N)cc(C(=O)N[C@H](c3ccc(F)c(C)c3)C3CC3)c2)c(C(F)(F)F)n1` [Example 160, (S)—N-(Cyclopropyl(4-fluoro-3-methylphenyl)methyl)-3-((3-cyclopropyl-2-imino-2,3-dihydro-1H-imidazol-1-yl)methyl)-5-(1-ethyl-3-(trifluoromethyl)-1H-pyrazol-4-yl)benzamide] was tested, and the GI50 ([1]; Homo sapiens, MV4-11, 168 h) was under 100 nM and the Ki (WDR5; [3]) was under 0.1 nM.

`CCn1cc(-c2cc(Cn3ccn(C)c3=N)cc(C(=O)N[C@H](c3ccc(Cl)c(Cl)c3)C3CC3)c2)c(C(F)(F)F)n1` [Example 161, (S)—N-(Cyclopropyl(3,4-dichlorophenyl)methyl)-3-(1-ethyl-3-(trifluoromethyl)-1H-pyrazol-4-yl)-5-((2-imino-3-methyl-2,3-dihydro-1H-imidazol-1-yl)methyl)benzamide] was tested, and the GI50 ([1]; Homo sapiens, MV4-11, 168 h) was under 100 nM and the Ki (WDR5; [2]) was under 0.1 nM.

With `CCn1cc(-c2cc(Cn3ccn(C4CC4)c3=N)cc(C(=O)N[C@H](c3ccc(Cl)c(Cl)c3)C3CC3)c2)c(C(F)(F)F)n1` [Example 162, (S)—N-(Cyclopropyl(3,4-dichlorophenyl)methyl)-3-((3-cyclopropyl-2-imino-2,3-dihydro-1H-imidazol-1-yl)methyl)-5-(1-ethyl-3-(trifluoromethyl)-1H-pyrazol-4-yl)benzamide] the GI50 ([1]; Homo sapiens, MV4-11, 168 h) was 130 nM and the Ki (WDR5; [3]) was under 0.1 nM.

In the case of `Cc1cc([C@@H](NC(=O)c2cc(Cn3ccn(C)c3=N)cc(C3CCC3)c2)C2CC2)ccc1F` [Example 166, (S)-3-Cyclobutyl-N-(cyclopropyl(4-fluoro-3-methylphenyl)methyl)-5-((2-imino-3-methyl-2,3-dihydro-1H-imidazol-1-yl)methyl)benzamide], the GI50 ([1]; Homo sapiens, MV4-11, 168 h) is reported as 360 nM and the Ki (WDR5; [3]) is reported as under 0.1 nM.

Compound `Cc1cc([C@H](C)NC(=O)c2cc(Cn3ccn(C)c3=N)cc(-c3ccc(F)cc3C(F)(F)F)c2F)ccc1F` [Example 172, (S)-2,4′-Difluoro-N-(1-(4-fluoro-3-methylphenyl)ethyl)-5-((2-imino-3-methyl-2,3-dihydro-1H-imidazol-1-yl)methyl)-2′-(trifluoromethyl)-[1,1′-biphenyl]-3-carboxamide] has a GI50 ([1]; Homo sapiens, MV4-11, 168 h) of 160 nM and a Ki (WDR5) of under 0.1 nM.

In the case of `Cc1cc([C@@H](NC(=O)c2cc(Cn3ccn(C)c3=N)cc(-c3ccc(F)cc3Cl)c2)C2CC2)ncc1F` [Example 174, (S)-2′-Chloro-N-(cyclopropyl(5-fluoro-4-methylpyridin-2-yl)methyl)-4′-fluoro-5-((2-imino-3-methyl-2,3-dihydro-1H-imidazol-1-yl)methyl)-[1,1′-biphenyl]-3-carboxamide], the GI50 ([1]; Homo sapiens, MV4-11, 168 h) is reported as under 100 nM and the Ki (WDR5; [3]) is reported as under 0.1 nM.

In the case of `Cc1cc([C@@H](NC(=O)c2cc(Cn3ccn(C)c3=N)cc(OC(F)(F)F)c2)C2CC2)ccc1F` [Example 179, (S)—N-(Cyclopropyl(4=fluoro-3-methylphenyl)methyl)-3-((2-imino-3-methyl-2,3-dihydro-1H-imidazol-1-yl)methyl)-5-(trifluoromethoxy)benzamide], the GI50 ([1]; Homo sapiens, MV4-11, 168 h) is reported as 230 nM and the Ki (WDR5; [3]) is reported as under 0.1 nM.

For `Cc1cc([C@@H](NC(=O)c2cc(Cn3ccn(C)c3=N)cc(-c3ccc(F)cc3C#N)c2)C2CC2)ccc1F` [Example 185, (S)-2′-Cyano-N-(cyclopropyl(4-fluoro-3-methylphenyl)methyl)-4′-fluoro-5-((2-imino-3-methyl-2,3-dihydro-1H-imidazol-1-yl)methyl)-[1,1′-biphenyl]-3-carboxamide], the GI50 ([1]; Homo sapiens, MV4-11, 168 h) was 610 nM and the Ki (WDR5; [3]) was under 0.1 nM.

In the case of `Cn1ccn(Cc2cc(C(=O)NC3(c4cccc(Br)c4)CCC3)c(F)c(-c3ccc(F)cc3C(F)(F)F)c2)c1=N` [Example 186, N-(1-(3-Bromophenyl)cyclobutyl)-2,4′-difluoro-5-((2-imino-3-methyl-2,3-dihydro-1H-imidazol-1-yl)methyl)-2′-(trifluoromethyl)-[1,1′-biphenyl]-3-carboxamide], the GI50 ([1]; Homo sapiens, MV4-11, 168 h) is reported as 580 nM and the Ki (WDR5; [3]) is reported as under 0.1 nM.

With `Cn1ccn(Cc2cc(C(=O)N[C@H](c3ccc(Cl)c(Cl)c3)C3CC3)cc(-c3ncc(F)cc3C(F)(F)F)c2)c1=N` [Example 187] the GI50 ([1]; Homo sapiens, MV4-11, 168 h) was 440 nM and the Ki (WDR5; [3]) was under 0.1 nM.

In the case of `Cc1cc([C@@H](NC(=O)c2cc(Cn3ccn(C)c3=N)cc(-c3ccc(F)cc3C(F)(F)F)c2)C2CC2)ccc1F` [Example 188, (S)—N-(Cyclopropyl(4-fluoro-3-methylphenyl)methyl)-4′-fluoro-5-((2-imino-3-methyl-2,3-dihydro-1H-imidazol-1-yl)methyl)-2′-(trifluoromethyl)-[1,1′-biphenyl]3-carboxamide], the GI50 ([1]; Homo sapiens, MV4-11, 168 h) is reported as under 100 nM and the Ki (WDR5) is reported as under 0.1 nM.
